Series [1] deals with T1, VEGF receptor KDR (VEGFR2) (Homo sapiens, UniProt P35968).
T1 construct: made in house; host or cells: Sf9 cells (Spodoptera frugiperda), baculovirus
Briefly: In vitro receptor tyrosine kinase assay (VEGF receptor KDR), DELFIA. Conditions: recombinant GST-VEGFR2 (806-1356), ATP 0.6 uM, enzyme 5 nM; read-out: VEGFR_IC50_UM. The class given is biochemical. An excerpt:
In Vitro Receptor Tyrosine Kinase Assay (VEGF receptor KDR)
This test measures the ability of compounds to inhibit the enzymatic activity of recombinant human VEGF receptor enzymatic activity.
A 1.6-kb cDNA corresponding to the catalytic domain of VEGFR2 (KDR) (Genbank accession number AF035121 amino acid 806 to 1356) is cloned into the Pst I site of the pDEST20 Gateway vector (Invitrogen) for the production of a GST-tagged version of that enzyme. This construct is used to generate recombinant baculovirus using the Bac-to-Bac™ system according to the manufacturer's instructions (Invitrogen).
The GST-VEGFR2806-1356 protein is expressed in Sf9 cells (Spodoptera frugiperda) upon infection with recombinant baculovirus construct. Briefly, Sf9 cells grown in suspension and maintained in serum-free medium (Sf900 II supplemented with gentamycin) at a cell density of about 2×10^6 cells/ml are infected with the above-mentioned viruses at a multiplicity of infection (MOI) of 0.1 during 72 hours at 27° C. with agitation at 120 rpm on a rotary shaker. Infected cells are harvested by centrifugation at 398g for 15 min. Cell pellets are frozen at −80° C. until purification is performed.
All steps described in cell extraction and purification are performed at 4° C. Frozen Sf9 cell pellets infected with the GST-VEGFR2806-1356 recombinant baculovirus are thawed and gently resuspended in Buffer A (PBS pH 7.3 supplemented with 1 μg/ml pepstatin, 2 μg/ml Aprotinin and leupeptin, 50 μg/ml PMSF, 50 μg/ml TLCK and 10 μM E64 and 0.5 mM DTT) using 3 ml of buffer per gram of cells. Suspension is Dounce homogenized and 1% Triton X-100 is added to the homogenate after which it is centrifuged at 22500 g, 30 min., 4 °C. The supernatant (cell extract) is used as starting material for purification of GST-VEGFR2806-1356.
The supernatant is loaded onto a GST-agarose column (Sigma) equilibrated with PBS pH 7.3. Following a four column volume (CV) wash with PBS pH 7.3+1% Triton X-100 and 4 CV wash with buffer B (50mM Tris pH 8.0, 20% glycerol and 100mM NaCl), bound proteins are step eluted with 5 CV of buffer B supplemented with 5 mM DTT and 15 mM glutathion. GST-VEGFR2806-1356 enriched fractions from this chromatography step are pooled based on U.V. trace i.e. fractions with high 0.D.280. Final GST-VEGFR2806-1356 protein preparations concentrations are about 0.7 mg/ml with purity approximating 70%. Purified GST-VEGFR2806-1356 protein stocks are aliquoted and frozen at −80° C. prior to use in enzymatic assay.
Inhibition of VEGFR/KDR is measured in a DELFIATM assay (Perkin Elmer). The substrate poly(Glu4, Tyr) is immobilized onto black high-binding polystyrene 96-well plates. The coated plates are washed and stored at 4° C. During the assay, the enzyme is pre-incubated with inhibitor and Mg-ATP on ice in polypropylene 96-well plates for 4 minutes, and then transferred to the coated plates. The subsequent kinase reaction takes place at 30° C. for 10-30 minutes. ATP concentrations in the assay are 0.6 uM for VEGFR/KDR (2× the Km). Enzyme concentration is 5 nM. After incubation, the kinase reactions are quenched with EDTA and the plates are washed. Phosphorylated product is detected by incubation with Europium-labeled anti-phosphotyrosine MoAb. After washing the plates, bound MoAb is detected by time-resolved fluorescence in a Gemini SpectraMax reader (Molecular Devices). Compounds are evaluated over a range of concentrations, and IC50 values (concentration of compounds giving 50% inhibition of enzymatic activity) are determined.

The nature of series [2]: Solubility measurements in PBS (pH 7.4), filtration, HPLC-UV. Conditions: PBS (pH 7.4) with 1% DMSO, aqueous buffer, kinetic from dmso stock, PBS pH 7.4, 100 μM test substance, room temperature. It is filed as physicochemical. The procedure: The solubility of each substance was assessed using MultiScreen® HTS 96-well filtration system (filter; polycarbonate, pore size; 0.4 μm, Millipore). DMSO stock solutions of each test substance (10 mM) were prepared to initiate the assay. The equilibration was performed in PBS (pH 7.4) containing 100 μM of a test substance and 1% DMSO, for 24 hours at room temperature with shaking The concentrations of test substances in each filtrate were determined by HPLC-UV.
HPLC conditions were following:
Waters ACQUITY UPLC H class instrument.
Eluent A: 10 mM aqueous Ammonium formate
Eluent B: 0.1 volume % formic acid in acetonitrile
Flow: 1 mL/min, UV: 316 nm

In brackets after ≈: the same amount, converted by molar mass.

T1 sequence (P35968 806-1356): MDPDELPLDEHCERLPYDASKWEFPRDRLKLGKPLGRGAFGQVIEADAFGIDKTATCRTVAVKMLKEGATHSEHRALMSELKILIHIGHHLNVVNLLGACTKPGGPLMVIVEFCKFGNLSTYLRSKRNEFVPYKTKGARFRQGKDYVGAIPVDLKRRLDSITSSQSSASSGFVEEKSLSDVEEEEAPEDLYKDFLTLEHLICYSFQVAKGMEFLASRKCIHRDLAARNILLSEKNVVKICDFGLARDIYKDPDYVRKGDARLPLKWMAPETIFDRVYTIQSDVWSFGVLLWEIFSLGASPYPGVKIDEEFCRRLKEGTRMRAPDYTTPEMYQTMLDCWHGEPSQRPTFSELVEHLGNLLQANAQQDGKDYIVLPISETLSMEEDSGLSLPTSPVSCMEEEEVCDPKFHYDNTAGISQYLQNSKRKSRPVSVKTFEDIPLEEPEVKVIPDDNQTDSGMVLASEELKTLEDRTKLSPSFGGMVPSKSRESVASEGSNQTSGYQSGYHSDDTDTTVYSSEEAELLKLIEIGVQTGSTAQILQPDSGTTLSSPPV

With `C[C@H](O)CN1CCN(Cc2ccc(-c3cc4nccc(Oc5ccc(NC(=O)NC6CC6)cc5F)c4s3)nc2)CC1` [Compound 30], the IC50 in series [1] was 4 nM. In addition, the concentration in solution in series [2] (solubility at 24 h) was 6.46 µM (≈ 3.73 µg/mL). In the same order, the values of `CC(C)(O)C(=O)N1CCN(Cc2ccc(-c3cc4nccc(Oc5ccc(NC(=O)NC6CC6)cc5F)c4s3)nc2)CC1` [Compound 35-A, 1-Cyclopropyl-3-(3-fluoro-4-(2-(5-((4-(2-hydroxy-2-methylpropanoyl)piperazin-1-yl)methyl)pyridin-2-yl)thieno[3,2-b]pyridin-7-yloxy)phenyl)urea] are 1 nM and 1.19 µM (≈ 0.72 µg/mL). With `COCCOC(=O)N1CCN(Cc2ccc(-c3cc4nccc(Oc5ccc(NC(=O)NC6CC6)cc5F)c4s3)nc2)CC1` [Compound 76, 2-Methoxyethyl 4-((6-(7-(4-(3-cyclopropylureido)-2-fluorophenoxy)thieno[3,2-b]pyridin-2-yl)pyridin-3-yl)methyl)piperazine-1-carboxylate], in series [1], the IC50 was 8 nM. With `CCCC(=O)OCC(=O)N1CCN(Cc2ccc(-c3cc4nccc(Oc5ccc(NC(=O)NC6CC6)cc5F)c4s3)nc2)CC1` [Compound 79, 2-(4-((6-(7-(4-(3-Cyclopropylureido)-2-fluorophenoxy)thieno[3,2-b]pyridin-2-yl)pyridin-3-yl)methyl)piperazin-1-yl)-2-oxoethyl butyrate], in series [1], the IC50 is 19 nM.

With `CC(C)C(=O)OCC(=O)N1CCN(Cc2ccc(-c3cc4nccc(Oc5ccc(NC(=O)NC6CC6)cc5F)c4s3)nc2)CC1` [Compound 80, 2-(4-((6-(7-(4-(3-Cyclopropylureido)-2-fluorophenoxy)thieno[3,2-b]pyridin-2-yl)pyridin-3-yl)methul)piperazin 1-yl)-2-oxoethyl isobutrate], the IC50 in series [1] was 20 nM. On the same count and under the same terms, then `O=C(Nc1ccc(Oc2ccnc3cc(-c4ccc(CN5CCN(C(=O)CS)CC5)cn4)sc23)c(F)c1)NC1CC1` [Compound 114, 1-Cyclopropyl-3-(3-fluoro-4-(2-(5-((4-(2-mercaptoacetyl)piperazin-1-yl)methyl)pyridin-2-yl)thieno[3,2-b]pyridin-7-yloxy)phenyl)urea], with 10 nM.

Turning to `C[C@@H]1CN(Cc2ccc(-c3cc4nccc(Oc5ccc(NC(=O)NC6CC6)cc5F)c4s3)nc2)CCN1CCO` [Compound 119, (R)-1-cyclopropyl-3-(3-fluoro-4-(2-(5-((4-(2-hydroxyethyl)-3-methylpiperazin-1-yl)methyl)pyridin-2-yl)thieno[3,2-b]pyridin-7-yloxy)phenyl)urea], the IC50 in series [1] came out at 8 nM. Same read-out and setting: the result for `O=C(Nc1ccc(Oc2ccnc3cc(-c4ccc(CN5CCN(C(=O)COC(=O)CCCC[C@H]6SC[C@H]7NC(=O)N[C@H]76)CC5)cn4)sc23)c(F)c1)NC1CC1` [Compound 120, 2-(4-((6-(7-(4-(3-Cyclopropylureido)-2-fluorophenoxy)thieno[3,2-b]pyridin-2-yl)pyridin-3-yl)methyl)piperazin-1-yl)-2-oxoethyl 5-((3aR,4R,6aS)-2-oxohexahydro-1H-thieno[3,4-d]imidazol-4-yl)pentanoate] reads 21 nM.

For the origin of these results see patent US20130096135A1, “Selected Inhibitors of Protein Tyrosine Kinase Activity” (METHYLGENE INC., priority 2011, published 2013).
